Laboratory results: US20250084063A1 (Incyte Corporation, priority 2023, published 2025)

Key:
Assay type in all cases: cell-based
MRGPRX2 [1] = biological target: T1, MRGPRX2 (Homo sapiens, UniProt Q96LB1); assay: MRGPRX2 IP1 HTRF assay; parameters: host or cells: CHO-K1; details: CHO-K1 cells stably expressing human MRGPRX2; IP1 accumulation, agonist Cortistatin 14 1 μM
T1 sequence (Q96LB1 1-330): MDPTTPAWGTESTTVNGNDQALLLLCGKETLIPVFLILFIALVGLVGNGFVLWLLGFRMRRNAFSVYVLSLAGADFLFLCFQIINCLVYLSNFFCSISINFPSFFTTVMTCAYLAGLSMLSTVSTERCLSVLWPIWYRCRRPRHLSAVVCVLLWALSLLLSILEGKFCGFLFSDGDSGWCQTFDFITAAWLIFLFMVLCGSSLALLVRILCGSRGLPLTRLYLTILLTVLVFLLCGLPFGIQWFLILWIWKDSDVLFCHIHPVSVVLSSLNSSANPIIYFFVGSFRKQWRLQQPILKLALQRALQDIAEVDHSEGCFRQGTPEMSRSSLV

MRGPRX2 [2] = biological target: T1, MRGPRX2; assay: MRGPRX2 β-Arrestin assay; parameters: host or cells: PathHunter CHO-K1; details: PathHunter CHO-K1 MRGPRX2 β-Arrestin cell line; agonist Cortistatin 14 0.25 μM
In short: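 PathHunter CHO-K1 cells expressing ProLink-tagged MRGPRX2 and enzyme-acceptor-tagged β-arrestin were preincubated with serially diluted compound 1 h at 37 °C, then stimulated with 0.25 μM cortistatin 14 (final) for 90 min. β-arrestin recruitment was read by luminescence; IC50 from 3- or 4-parameter Hill fits normalised to DMSO and reference antagonist controls.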

MRGPRX2 [3] = biological target: T1, MRGPRX2; assay: MRGPRX2 FLIPR calcium mobilization assay; parameters: host or cells: CHO-K1; details: CHO-K1 cells stably expressing human MRGPRX2; Ca2+ release, agonist Cortistatin-14 at EC80
In short: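 CHO-K1 cells stably expressing human MRGPRX2, loaded with Calcium 6 dye, pre-incubated 30 min at room temperature with test compound in HBSS/20 mM HEPES pH 7.4. Then challenged with Cortistatin-14 at EC80; baseline-adjusted peak fluorescence over 110 s fitted to a Hill equation for IC50.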

| SMILES | IC50 (MRGPRX2 [1]) | IC50 (MRGPRX2 [2]) | IC50 (MRGPRX2 [3]) |
| --- | --- | --- | --- |
| NS(=O)(=O)N1CC(CNc2cc(C(F)F)nc3ccc(Cl)cc23)(c2ccc(F)cc2)C1 [Example 5, 3-(((6-Chloro-2-(difluoromethyl)quinolin-4-yl)amino)methyl)-3-(4-fluorophenyl)azetidine-1-sulfonamide] | 0.1 to 100 nM | 0.1 to 100 nM | 0.1 to 100 nM |
| Nc1ccc(N2CCC(CNc3cc(C(F)(F)F)nc4ccc(Cl)cc34)(c3ccccc3)CC2)nn1 [Example 78, N-((1-(6-Aminopyridazin-3-yl)-4-phenylpiperidin-4-yl)methyl)-6-chloro-2-(trifluoromethyl)quinolin-4-amine] | 0.1 to 100 nM | 0.1 to 100 nM | 0.1 to 100 nM |
| CNC(=O)N1CCC(CNc2cc(C(F)(F)F)nc3ccc(Cl)cc23)(c2ccc(F)cn2)C1 (stereo not drawn) [Example 49, 3-(((6-Chloro-2-(trifluoromethyl)quinolin-4-yl)amino)methyl)-3-(5-fluoropyridin-2-yl)-N-methylpyrrolidine-1-carboxamide] | 0.1 to 100 nM | 0.1 to 100 nM | 0.1 to 100 nM |
| NS(=O)(=O)N1CC(CNc2cc(C(F)(F)F)nc3ccc(Cl)cc23)(c2ccc(F)cc2)C1 [Example 32, 3-(((6-Chloro-2-(trifluoromethyl)quinolin-4-yl)amino)methyl)-3-(4-fluorophenyl)azetidine-1-sulfonamide] | 0.1 to 100 nM | 0.1 to 100 nM | 0.1 to 100 nM |
| O=C(NC1CCC1)N1CC(CNc2cc(C(F)(F)F)nc3ccc(Cl)cc23)(n2cc(F)cn2)C1 [Example 107, 3-(((6-Chloro-2-(trifluoromethyl)quinolin-4-yl)amino)methyl)-N-cyclobutyl-3-(4-fluoro-1H-pyrazol-1-yl)azetidine-1-carboxamide] | 0.1 to 100 nM | 0.1 to 100 nM | 0.1 to 100 nM |
| NS(=O)(=O)N1CC(CNc2cc(C(F)(F)F)nc3ccc(Cl)cc23)(c2ccccc2)C1 [Example 38, 3-(((6-Chloro-2-(trifluoromethyl)quinolin-4-yl)amino)methyl)-3-phenylazetidine-1-sulfonamide] | 0.1 to 100 nM | 0.1 to 100 nM | 0.1 to 100 nM |
| CNC(=O)N1CC(CNc2cc(C(F)(F)F)nc3ccc(Cl)cc23)(c2ccc3cnn(C)c3c2)C1 [Example 83] | 100 to 1000 nM | 100 to 1000 nM | 0.1 to 100 nM |
| CNC(=O)N1CC(CNc2cc(C(F)(F)F)nc3ccc(Cl)cc23)(n2cc(Br)cn2)C1 [Example 99, 3-(4-Bromo-1H-pyrazol-1-yl)-3-(((6-chloro-2-(trifluoromethyl)quinolin-4-yl)amino)methyl)-N-methylazetidine-1-carboxamide] | 0.1 to 100 nM | 0.1 to 100 nM | 0.1 to 100 nM |
| O=C(NC1CC1)N1CC(CNc2cc(C(F)(F)F)nc3ccc(Cl)cc23)(n2cc(F)cn2)C1 [Example 27, 3-(((6-Chloro-2-(trifluoromethyl)quinolin-4-yl)amino)methyl)-N-cyclopropyl-3-(4-fluoro-1H-pyrazol-1-yl)azetidine-1-carboxamide] | 0.1 to 100 nM | 0.1 to 100 nM | 0.1 to 100 nM |
| NS(=O)(=O)N1CC(CNc2cc(C(F)(F)F)nc3ccc(F)cc23)(c2ccc(F)cc2)C1 [Example 23, 3-(((6-Fluoro-2-(trifluoromethyl)quinolin-4-yl)amino)methyl)-3-(4-fluorophenyl)azetidine-1-sulfonamide] | 0.1 to 100 nM | 0.1 to 100 nM | 0.1 to 100 nM |
| NC(=O)N1CC(CNc2cc(C(F)(F)F)nc3ccc(Cl)cc23)(n2cc(F)cn2)C1 [Example 28, 3-(((6-Chloro-2-(trifluoromethyl)quinolin-4-yl)amino)methyl)-3-(4-fluoro-1H-pyrazol-1-yl)azetidine-1-carboxamide] | 0.1 to 100 nM | 0.1 to 100 nM | 0.1 to 100 nM |
| Cn1ncc2ccc(C3(CNc4cc(C(F)(F)F)nc5ccc(Cl)cc45)CN(S(N)(=O)=O)C3)cc21 [Example 84, 3-(((6-Chloro-2-(trifluoromethyl)quinolin-4-yl)amino)methyl)-3-(1-methyl-1H-indazol-6-yl)azetidine-1-sulfonamide] | 100 to 1000 nM | 0.1 to 100 nM | 0.1 to 100 nM |
| NC(=O)N1CC(CNc2cc(C(F)(F)F)nc3ccc(Br)cc23)(c2ccc(F)cn2)C1 [Example 6, 3-(((6-Bromo-2-(trifluoromethyl)quinolin-4-yl)amino)methyl)-3-(5-fluoropyridin-2-yl)azetidine-1-carboxamide] | 0.1 to 100 nM | 0.1 to 100 nM | 0.1 to 100 nM |
| NS(=O)(=O)N1CC(CNc2cc(C(F)(F)F)nc3ccc(Cl)cc23)(c2ncccc2F)C1 [Example 43, 3-(((6-Chloro-2-(trifluoromethyl)quinolin-4-yl)amino)methyl)-3-(3-fluoropyridin-2-yl)azetidine-1-sulfonamide] | 0.1 to 100 nM | 0.1 to 100 nM | 0.1 to 100 nM |
